Assay results from article PMC9414986, “Phytochemical Characterization of Cannabis sativa L. Chemotype V Reveals Three New Dihydrophenanthrenoids That Favorably Reprogram Lipid Mediator Biosynthesis in Macrophages” (Plants, 2022).

Experiments:
[1] = test system: 5-lipoxygenase (5-LOX) pathway; set-up: method as in PMID 28165233; conditions: cited from earlier work
[2] = test system: 5-LOX product formation; experiment: 5-LOX product formation in activated human M1 macrophages (metabololipidomics); conditions: Macrophage, cell-based, Staphylococcus aureus-conditioned medium 1.0%, 3 h, 15 min preincubation, read-out: IC50 for inhibition of 5-LOX product formation
Source text: (§1) Leukocyte reduction system chamber (LRSC) filters were provided by the Central Institute for Blood Transfusion and Immunological Department of Tirol Kliniken GmbH (Austria) with the informed consent of the volunteers. Only healthy blood donors between 18 and 65 years of age without medication for chronic diseases, fever, or deficiency symptoms and after physical examinations by trained medical personnel were included in the study. Human peripheral blood mononuclear cells (PBMC) were freshly isolated from LRSC filters. After dilution of the cell concentrates in PBS pH 7.4 containing 12.5 mM citrate and 14 mM glucose (130 mL, 37 °C), immune cells were separated via isopycnic density gradient centrifugation (400× g, 20 min, RT) using Histopaque®-1077 (Sigma-Alrich, St. Louis, MO, USA). PBMC were obtained from the interphase after hypotonic lysis of erythrocytes using water (2–5 mL) and two consecutive washing steps with PBS pH 7.4 (50 mL) (270× g, 5 min, RT). […]
(§2) Lipid mediator biosynthesis in human M1/M2 macrophages (1.5 mL PBS pH 7.4 plus 1 mM CaCl2) was stimulated with Staphylococcus aureus (LS1)-conditioned medium (1.0%, 3 h) after 15 min preincubation with DMSO (0.1%) or test compounds and stopped by addition of ice-cold MeOH (2.5 mL) containing deuterium-labeled internal standards (200 pg d8-5S-hydroxyeicosatetraenoic acid (HETE), d4-leukotriene (LT)B4, d5-lipoxin (LX)A4, d5-resolvin (Rv)D2, d4-prostaglandin (PG)E2, and 2000 pg d8-arachidonic acid (Cayman Chemical, Ann Arbor, MI, USA)). […] The gradient of mobile phase A (water/MeOH, 90/10, 0.01% acetic acid) and mobile phase B (MeOH, 0.01% acetic acid) was ramped at a flow rate of 0.35 mL/min from 35.6% to 84.4% B within 12.5 min followed by 5 min of isocratic elution at 97.8% B. Lipid mediators and fatty acids were analyzed in the negative ion mode by scheduled multiple reaction monitoring (detection window: 120 s) using a QTRAP 6500^+ Mass Spectrometer (Sciex), which was equipped with an electrospray ionization source. […]

[3] = target: T1, human recombinant 5-LOX (Homo sapiens, UniProt P09917); experiment: cell-free 5-lipoxygenase activity assay; assay type: biochemical; conditions: arachidonic acid 20 µM, 10 min at 37 °C, read-out: IC50 for inhibition of human recombinant 5-LOX
T1 construct: purchased Cayman Chemical
T1 sequence (P09917 1-674): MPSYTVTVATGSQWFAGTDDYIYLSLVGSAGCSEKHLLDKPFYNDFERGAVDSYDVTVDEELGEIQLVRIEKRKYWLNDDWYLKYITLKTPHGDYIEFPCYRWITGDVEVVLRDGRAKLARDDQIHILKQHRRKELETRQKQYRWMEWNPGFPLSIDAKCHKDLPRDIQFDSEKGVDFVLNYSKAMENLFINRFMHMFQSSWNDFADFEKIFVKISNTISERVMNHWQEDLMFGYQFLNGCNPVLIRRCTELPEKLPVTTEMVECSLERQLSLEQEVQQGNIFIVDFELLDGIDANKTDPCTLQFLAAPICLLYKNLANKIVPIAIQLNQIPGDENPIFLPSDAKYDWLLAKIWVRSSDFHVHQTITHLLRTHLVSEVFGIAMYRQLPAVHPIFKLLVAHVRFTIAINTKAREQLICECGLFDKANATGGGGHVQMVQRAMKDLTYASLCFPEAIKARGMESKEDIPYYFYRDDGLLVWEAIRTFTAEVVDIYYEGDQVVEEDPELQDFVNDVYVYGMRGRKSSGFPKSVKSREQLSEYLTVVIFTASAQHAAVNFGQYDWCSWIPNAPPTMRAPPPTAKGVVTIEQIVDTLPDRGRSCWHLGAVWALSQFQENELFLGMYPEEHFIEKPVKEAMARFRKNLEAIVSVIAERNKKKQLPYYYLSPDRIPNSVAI
Protocol: Human recombinant 5-LOX (Cayman Chemical, 10 U) was pre-treated with vehicle (DMSO, 0.1%) or test compounds for 10 min in 1 mL PBS pH 7.4, 1 mM EDTA and 1 mM ATP on ice before CaCl2 (2 mM) and arachidonic acid (20 µM) were added. After 10 min at 37 °C, the reaction was stopped by the addition of ice-cold MeOH (1 mL) and PGB1 (2 ng) as internal standard. Clean-Up C-18 Endcapped SPE cartridges (100 mg, 10 mL, UCT, Bristol, PA, USA) were conditioned with MeOH (1 mL, twice) and equilibrated with water (1 mL). After acidification (530 µL PBS plus 60 mM HCl) and centrifugation (750× g, 10 min, 4 °C), supernatants containing lipid mediators were loaded onto the columns, which were first washed with water (1 mL) and then MeOH/water (25:75, 1 mL). After elution of lipid mediators with MeOH (300 µL), water (120 µL) was added and samples were centrifuged (21,100× g, 10 min, 4 °C) and subjected to LC-PDA analysis. 5-LOX products, including all trans-isomers of LTB4 and 5-HETE, were separated at 40 °C and a flow rate of 0.45 mL/min on a Kinetex C-18 LC column (100Å, 1.3 μm, 2.1 × 50 mm, Phenomenex, Torrance, CA) using a Nexera X2 UHPLC system (Shimadzu, Kyoto, Japan). The step gradient of mobile phase A (water/MeOH, 50/50, 0.05% trifluoroacetic acid) and mobile phase B (MeOH, 0.05% trifluoroacetic acid) was kept at 14% B for 2 min, followed by 46% B for 2 min and 90% B for another 2 min. LTB4 isomers and 5-HETE were detected with a photodiode array detector (SPD-M20A, Shimadzu, Kioto, Japan) at 280 nm and 235 nm, respectively. Lipid quantitieswere calculated by internal calibration using PGB1 as reference standard.
Data are expressed as mean ± s.e.m. and single data from n = 4–8 independent experiments. […] Data were analyzed using Microsoft Excel (Office 365, Version: 2204, Albuquerque, New Mexico), and statistics were performed using GraphPad Prism (GraphPad Software version 9.3.1, Dotmatics, Boston, UK). IC50 values were calculated by non-linear regression (GraphPad Prism 9.3.1).

[4] = test system: COX product formation; experiment: COX product formation in activated human M1 macrophages (metabololipidomics); assay type: cell-based
Source text: as §1, §2

[5] = test system: human M2 macrophages; experiment: lipid mediator profile (SPMs, precursors, free PUFAs) in activated human M2 macrophages; assay type: cell-based
Source text: Leukocyte reduction system chamber (LRSC) filters were provided by the Central Institute for Blood Transfusion and Immunological Department of Tirol Kliniken GmbH (Austria) with the informed consent of the volunteers. Only healthy blood donors between 18 and 65 years of age without medication for chronic diseases, fever, or deficiency symptoms and after physical examinations by trained medical personnel were included in the study. Human peripheral blood mononuclear cells (PBMC) were freshly isolated from LRSC filters. After dilution of the cell concentrates in PBS pH 7.4 containing 12.5 mM citrate and 14 mM glucose (130 mL, 37 °C), immune cells were separated via isopycnic density gradient centrifugation (400× g, 20 min, RT) using Histopaque®-1077 (Sigma-Alrich, St. Louis, MO, USA). PBMC were obtained from the interphase after hypotonic lysis of erythrocytes using water (2–5 mL) and two consecutive washing steps with PBS pH 7.4 (50 mL) (270× g, 5 min, RT).
To differentiate monocytes, which are the predominant cell type in PBMC, towards M0 macrophages, they were first stimulated with 20 ng/mL GM-CSF or M-CSF (HiSS Diagnostics GmbH, Freiburg, Germany) for 6 days in macrophage medium (RPMI 1640 supplemented with 10% FCS, 2 mmol/L L-glutamine, 100 U/mL penicillin and 100 μg/mL streptomycin). These monocyte-derived macrophages were polarized for another 48 h in macrophage medium with 100 ng/mL lipopolysaccharide and 20 ng/mL interferon-γ (Peprotech, Hamburg, Germany) to obtain M1 or with 20 ng/mL interleukin-4 (Peprotech, Hamburg, Germany) to obtain M2 phenotypes.
Lipid mediator biosynthesis in human M1/M2 macrophages (1.5 mL PBS pH 7.4 plus 1 mM CaCl2) was stimulated with Staphylococcus aureus (LS1)-conditioned medium (1.0%, 3 h) after 15 min preincubation with DMSO (0.1%) or test compounds and stopped by addition of ice-cold MeOH (2.5 mL) containing deuterium-labeled internal standards (200 pg d8-5S-hydroxyeicosatetraenoic acid (HETE), d4-leukotriene (LT)B4, d5-lipoxin (LX)A4, d5-resolvin (Rv)D2, d4-prostaglandin (PG)E2, and 2000 pg d8-arachidonic acid (Cayman Chemical, Ann Arbor, MI, USA)). Samples were incubated at −20 °C for at least 1 h to precipitate proteins and then centrifuged (750× g, 10 min, 4 °C). The supernatant was mixed with acidified water (7 mL, pH 3.5) and loaded onto solid phase cartridges (Sep-Pak® Vac 6cc 500 mg/6 mL C-18 (Waters, Milford, MA, USA)), which were conditioned with MeOH (6 mL) and equilibrated with water (2 mL). Columns were washed with water (6 mL) and hexane (6 mL, 4 °C) before lipid mediators were eluted with methyl formiate (6 mL). The organic phase was evaporated to dryness using a TurboVap LV (Biotage, Uppsala, Sweden) and the remaining lipids were dissolved in MeOH/water (1:1), centrifuged twice (21,100× g, 4 °C, 5 min), and subjected to UPLC-MS/MS analysis. Chromatographic separation of lipid mediators was carried out at 55°C on an Acquity UPLC BEH C-18 column (130Å, 1.7 μm, 2.1 × 100 mm, Waters) using an ExionLC AD UHPLC system (Sciex, Framingham, MA, USA). The gradient of mobile phase A (water/MeOH, 90/10, 0.01% acetic acid) and mobile phase B (MeOH, 0.01% acetic acid) was ramped at a flow rate of 0.35 mL/min from 35.6% to 84.4% B within 12.5 min followed by 5 min of isocratic elution at 97.8% B. Lipid mediators and fatty acids were analyzed in the negative ion mode by scheduled multiple reaction monitoring (detection window: 120 s) using a QTRAP 6500^+ Mass Spectrometer (Sciex), which was equipped with an electrospray ionization source. The curtain gas was set to 40 psi, the collision gas to medium, the ion spray voltage to −4000 V, the heated capillary temperature to 500 °C, and the sheath and auxiliary gas pressure to 40 psi. Transitions selected for quantitation and the corresponding declustering potential (DP), entrance potential (EP), collision energy (CE) and collision cell exit potential (CXP) are listed in Table 4. […]

[6] = test system: microsomal prostaglandin E2 synthase (mPGES)-1; set-up: method as in doi:10.1016/j.phanu.2014.05.001; conditions: cited from earlier work
[7] = test system: 12/15-LOX product levels; experiment: 12- and 15-LOX product levels in activated macrophages; assay type: cell-based, human
Source text: (§3) Leukocyte reduction system chamber (LRSC) filters were provided by the Central Institute for Blood Transfusion and Immunological Department of Tirol Kliniken GmbH (Austria) with the informed consent of the volunteers. Only healthy blood donors between 18 and 65 years of age without medication for chronic diseases, fever, or deficiency symptoms and after physical examinations by trained medical personnel were included in the study. Human peripheral blood mononuclear cells (PBMC) were freshly isolated from LRSC filters. […]
(§4) Lipid mediator biosynthesis in human M1/M2 macrophages (1.5 mL PBS pH 7.4 plus 1 mM CaCl2) was stimulated with Staphylococcus aureus (LS1)-conditioned medium (1.0%, 3 h) after 15 min preincubation with DMSO (0.1%) or test compounds and stopped by addition of ice-cold MeOH (2.5 mL) containing deuterium-labeled internal standards (200 pg d8-5S-hydroxyeicosatetraenoic acid (HETE), d4-leukotriene (LT)B4, d5-lipoxin (LX)A4, d5-resolvin (Rv)D2, d4-prostaglandin (PG)E2, and 2000 pg d8-arachidonic acid (Cayman Chemical, Ann Arbor, MI, USA)). […] Transitions selected for quantitation and the corresponding declustering potential (DP), entrance potential (EP), collision energy (CE) and collision cell exit potential (CXP) are listed in Table 4. […]

[8] = test system: soluble epoxide hydrolase (sEH); experiment: cellular sEH activity (DHETs/EETs ratio) in human M2 macrophages; assay type: cell-based
Source text: as §3, §4

[9] = test system: cell apoptosis; set-up: method as in PMID 18840408, PMID 18262737; conditions: cited from earlier work

For COc1cc(O)cc(CCc2ccc(OC)c(O)c2CC=C(C)C)c1 [Compound 6, canniprene], the “production of inflammatory eicosanoids via the 5-LOX pathway” value [1] is given as “potently inhibits”.

In the case of COc1cc(O)c2c(c1)CCc1cc(OC)c(OC)c(O)c1-2 [Compound 9, 9,10-dihydro-2,3,7-trimethoxy-4,5-phenanthrenediol], the IC50 [2] is reported as 3.8 µM, the IC50 [3] is reported as 6.9 µM and the “effect on COX product formation” value [4] is reported as “substantially elevated”. For the same compound, the “D-series Rv (RvDs) levels” value [5] was “raised”, the “formation of SPM precursors, including 17-HDHA, 15-HEPE and 15-HETE” value [5] was “enhanced formation” and the “maresin 2 (MaR2) levels” value [5] was “raised”. The “production of specialized pro-resolving mediators (SPMs)” value [5] was “stimulated” and the “protectins (PDs) levels” value [5] was “raised”.

In the case of COc1cc(-c2cc(=O)c3c(O)c(C/C=C(\C)CCC=C(C)C)c(O)cc3o2)ccc1O [Compound 7a, cannflavin A], the “inhibition of mPGES-1” value [6] is given as “potent inhibitors”.

In the case of COC1=CC(=O)C2=C(C1=O)c1c(cc(OC)cc1OC)CC2 [Compound 5, 9,10-dihydro-3,5,7-trimethoxy-1,4-phenanthrenequinone], the IC50 [2] is reported as 1 µM, the IC50 [3] is reported as 20.1 µM and the IC50 ([4]; Macrophage, cell-based, Staphylococcus aureus-conditioned medium, read-out: IC50 for inhibition of COX product (prostanoid) formation) is reported as 2 µM. For the same compound, the “D-series Rv (RvDs) levels” value [5] was “but not RvDs levels”, the “maresin 2 (MaR2) levels” value [5] was “elevated” and the “protectins (PDs) levels” value [5] was “elevated”. The “release of polyunsaturated fatty acids (PUFAs)” value [5] was “decreased”, the 12/15-LOX product levels [7] was “slightly but significantly lowered” and the “ratio of DHETs/EETs (indicator of sEH activity)” value [8] was “significantly elevated”.

For COC1=CC(=O)c2ccc3cc(OC)cc(O)c3c2C1=O [Compound 4, denbinobin], the cell apoptosis induction [9] is given as “cell apoptosis-inducing properties”.

In the case of COc1cc2c(c(OC)c1O)-c1c(ccc(OC)c1O)CC2 [Compound 10, 9,10-dihydro-2,4,6-trimethoxy-3,5-phenanthrenediol], the IC50 [2] is reported as 8.5 µM, the IC50 [3] is reported as 4.6 µM and the “effect on COX product formation” value [4] is reported as “substantially elevated”. The “maresin 2 (MaR2) levels” value [5] was “selectively increased”, the “production of specialized pro-resolving mediators (SPMs)” value [5] was “stimulated” and the “ratio of DHETs/EETs (indicator of sEH activity)” value [8] was “only increased by trend”.

For COc1cc(-c2cc(=O)c3c(O)c(CC=C(C)C)c(O)cc3o2)ccc1O [Compound 8, cannflavin B], the “inhibition of mPGES-1” value [6] is given as “potent inhibitors”.
